Values of other authors, collected in patent US20180318238A1, “METHODS FOR REDUCING SEQUELAE OF INTRA-DIALYTIC HYPOTENSION” (priority 2015, published 2018).

Settings: intravenous, dogs, all doses used; from WO 98/13036

Substance: S-ethylisothiouronium diethylphosphate
- Effect on arterial blood pressure: pronounced hypertensive effect at all doses used
